Values after ≈ are worked out from the molar mass of the structure shown.

The data set can be described thus: physchem. Particulars: water.

Regarding `CCCN(CCC)CCc1cccc2c1CC(=O)N2` [ropinirole, Ropinirole], the concentration in solution (solubility) came to 133 mg/mL (≈ 511 mM).

One may read the solubility as how much of the substance goes into solution per volume. Higher therefore signals a readily soluble substance.

Values taken from patent US7927624B2, “Hydrophilic/lipophilic polymeric matrix dosage formulation” (Jagotec AG, priority 2000, dated 2011).
